Experimental data published in paper PMC5861052, “Uptake and accumulation of Microcystin-LR based on exposure through drinking water: An animal model assessing the human health risk” (Scientific Reports, 2018).
Several values for one entry are separate records, joined by “and”; a condition that tells them apart may be missing. Identical values can stand only once.

Columns and labels:
[1] = type: in vivo; settings: pig
Procedure: (§1) This study was performed as described previously using twelve male Duroc pigs, six control and six treated pigs. Housing, diet and treatment were as described previously with the following modifications:
(§2) Animals were subjected to a fourteen-day acclimatization period prior to assignment to control or treated groups. Over the study period, each animal from the treatment group received a daily dose of 2 µg toxin/kg body weight MC-LR by oral gavage, 50 times the provisional WHO TDI, with the average dose for the six treated animals outlined in Table 4
(§3) , with the MC-LR for dosing prepared as described above. At day 40 (approximately 5 weeks) treated and control animals were euthanized. Sample collection and storage was as outlined for experiment 1.
(§4) Porcine tissue samples (50 mg) were weighed into 50 mL round bottomed flasks with the conversion and subsequent enrichment of MMPB carried out as outlined in ‘Analysis of conjugated MC-LR in porcine tissue’ (see Supplementary Information online). Samples were initially screened for MMPB, with any samples found to contain toxin quantified by use of a six point extracted matrix matched calibration curve in the range 0.010–0.25 µg/g dw using pooled control tissue of the relevant tissue, with calibrant levels achieved by spiking with the MMPB standard at a concentration of either 0.5 or 0.05 µg/mL after pH adjustment.
Conversion of any bound MC-LR and subsequent extraction was performed according to a modified method derived from Neffling et al. (2010) and developed using 50 mg aliquots of lyophilised homogenised, pooled porcine tissue from the control animals. 50 mg of tissue was weighed into a 50 mL round bottomed flask and 5 mL of oxidation solution at a concentration of 0.1 M was added, comprising both potassium permanganate (KMnO4) and sodium (meta) periodate (NaIO4) at 0.2 M mixed 1:1 v/v. The mixture was stirred at room temperature for 2 h whereby the colour of the solution turned from purple (colour of KMnO4) to red/brown (colour of the reduced product MnO2). A further 4 mL oxidation solution at 0.1 M was added turning the solution back to purple. The reaction was immediately quenched by addition of 1 mL sodium bisulphite solution (40% v/v). Following this, samples were transferred to 15 mL tubes and 10% sulphuric acid was added drop wise until the pH was acidic (~ 2). Samples were then centrifuged at 4 500 rpm for 15 min and the supernatant removed and loaded directly onto SPE cartridges.
Sample enrichment and clean-up was carried out using OASIS PRiME HLB cartridges, with samples loaded onto the cartridges, allowed to drip through under gravity then washed with water and 20% aqueous methanol (v/v). Bound MMPB was eluted into clean glass tubes using 2 x 1.5 mL 80% aqueous methanol (v/v) and the eluents evaporated to dryness under a gentle stream of nitrogen using a turbovap set at 45 °C. Samples were reconstituted in 100 µL 80% aqueous MeOH (v/v) and transferred to a micro vial for analysis.
Analysis of MMPB was performed as described above in ‘Analysis of free MC-LR and MC-LR-GSH in porcine tissues’. Detection and quantification was achieved using MRM, with MMPB seen as the [M + H]^+ ion and the transitions optimised manually as follows:
Separation was achieved using the same column and mobile phases as detailed above in ‘Analysis of free MC-LR in porcine serum’ with the flow rate set at 0.4 ml/min. The gradient used to achieve separation was as described above with the ACN initially held at 10%, then returned to 10% prior to the next injection.

[2] = Free MC-LR in porcine serum, experiment 1 (low dose), UPLC-MS/MS; settings: pig, in vivo, po
Procedure: The animal studies were performed under licence (PPL 2755 - Chemical contaminants in food producing animals) issued by the Department of Health, Social Services and Public Safety in Northern Ireland (NI) in accordance with the Animal (Scientific Procedures) Act (1986), and under the approval of the Agri-Food and Biosciences Institute (AFBI) Animal Welfare and Ethical Review Body (AWERB) and associated EU Directive 2010/63/EU for animal experiments. The study was performed on behalf of Queen’s University Belfast (QUB) by the Veterinary Sciences Division, Agri-Food and Biosciences Institute, Belfast, Northern Ireland. […]
Following the acclimatization period of seven days, eight healthy pigs were selected randomly for the control group and the remaining eight healthy pigs assigned to the treatment group. Before treatment, animals were examined by a veterinarian to confirm clinical health and then weighed, with the weight and identification of animals in each group recorded. […]
Analysis was performed using an ACQUITY UPLC i-Class system coupled to a Xevo TQ-S (triple quadrupole MS/MS) Mass Spectrometer (Waters, Manchester, UK). Detection and quantification was achieved using targeted analysis using Multiple Reaction Monitoring (MRM) and operated in ESI^+ mode. […]

[3] = Free MC-LR in porcine tissues, experiment 1 (low dose), UPLC-MS/MS; settings: pig, in vivo, po
Description: (§5) Following the acclimatization period of seven days, eight healthy pigs were selected randomly for the control group and the remaining eight healthy pigs assigned to the treatment group. Before treatment, animals were examined by a veterinarian to confirm clinical health and then weighed, with the weight and identification of animals in each group recorded. Over the study period (13 weeks), each animal from the treatment group received a low dose of MC-LR daily by oral gavage. The dose administered was 0.04 µg toxin/kg body weight, the provisional World Health Organization Tolerable Daily Intake (WHO TDI), based on the NOAEL derived from the animal experiment conducted by Fawell et al. (1999), with the average dose for the eight treated animals outlined in Table 3. Briefly, a 1 mg/mL solution of MC-LR was prepared by the addition of 250 µL of ethanol followed by 750 µL water. The appropriate dilutions were then performed depending on the weight of the animal to ensure the correct dose was administered in 5 mL of water.
Serum was collected weekly, starting at day -7 from treated and control animals as the pre-bleeds. […]
(§6) In order to quantify any toxins identified, a six-point extracted matrix-matched calibration curve in the range 0.001–0.1 μg/g dw was prepared using pooled control samples of the relevant tissue. […]

[4] = Bound MC-LR (MMPB) in porcine liver by Lemieux oxidation, experiment 1; settings: pig, in vivo, po
Description: as §5, with “Briefly, a 1 mg/mL solution of MC-LR was prepared by the addition of 250 µL of ethanol followed by 750 µL water. The appropriate dilutions were then performed depending on the weight of the animal to ensure the correct dose was administered in 5 mL of water.” left out
as §4, with “adjustment. […]” for “adjustment.”

[5] = Free MC-LR in porcine serum, experiment 2 (high dose), UPLC-MS/MS; settings: pig, in vivo, po
Procedure: as §1, §2
, with the MC-LR for dosing prepared as described above. At day 40 (approximately 5 weeks) treated and control animals were euthanized. Sample collection and storage was as outlined for experiment 1. […]
Analysis was performed using an ACQUITY UPLC i-Class system coupled to a Xevo TQ-S (triple quadrupole MS/MS) Mass Spectrometer (Waters, Manchester, UK). Detection and quantification was achieved using targeted analysis using Multiple Reaction Monitoring (MRM) and operated in ESI^+ mode. Analyte precursor ions were identified as [M + H]^+ for both MC-LR and NOD (IS) with the quantifying (Q) and qualifying (q) ions used as follows:
To quantify any MC-LR detected, a seven point extracted matrix matched calibration curve in the range 0.2-100 ng/mL serum was prepared using the ‘negative’ porcine serum. […]

[6] = Free MC-LR in porcine tissues, experiment 2 (high dose), UPLC-MS/MS; settings: pig, in vivo, po
Procedure: as §1, §2, §3
Tissue samples (see Supplementary Information online) (100 mg) were spiked with 10 μL of the NOD (IS) at 0.5 μg/mL and extracted by addition of 1.5 mL of 80% aqueous MeOH (v/v) (0.5% acetic acid v/v), vortex mixed briefly and sonicated at 35–40 °C for 45 min before centrifugation at 16 000 g for 15 min. […]
as §6

[7] = Parent ion scan of Adda fragment (m/z 135) in porcine serum; settings: pig, in vivo
Procedure: With MC-LR and its congeners, as well as any potential metabolites of MC-LR having in common the shared Adda group ((2S, 3S, 8S, 9S)-3-amino-9-methoxy-2, 6, 8-trimethyl-10-phenyldeca-4(E), 6(E)-dienoic acid) (Fig. 1)[8], serum samples were analysed for parent ions of Adda, with this fragment having an m/z of 135. This was optimised using the MC-LR standard and indicated a peak at the same retention time as when analysed in MRM mode, with the retention window extended to allow identification of any potential MC-LR metabolites.
A selection of serum sample time points from experiment (1) were chosen (n = 32), with; t = 14, t = 42, t = 70 and t = 98 correlating to the start, one, two and three months of treatment for each animal, as well as serum from all time points (n = 36) for each animal from experiment (2).

[8] = in vivo, cited from earlier work
Procedure: Looking at the study by Tencalla et al. (1997) in which rainbow trout were dosed with MC-LR also via oral gavage, they estimated the uptake of MC-LR into blood to be approximately 4.4% of the dose administered of 5700 µg MC-LR/kg bw[51]. Based on the findings reported by Tencalla et al. and taking the average bodyweight of the six animals in the final week of dosing in experiment (2) of our study, the average dose administered to the six animals equates to 96 µg of MC-LR per day for the last week. […].

[9] = mouse, in vivo, iv; cited from earlier work
Procedure: […]. In another experiment conducted by Robinson et al. (1991) using radiolabelled MC-LR to track its distribution in mice, levels of radiolabelled MC-LR peaked in the liver after only 30 min[52], although in this case the mice were injected intravenously via the tail vein rather than by oral g ...

## COC(Cc1ccccc1)C(C)C(=O)O (stereo not drawn) [MMPB, 2-methyl-3-methoxy-4-phenylbutyric acid]
[1]; livers of T2, T4 and T5, MC-LR oral gavage 2 µg/kg bw daily, Lemieux oxidation, dry weight
  concentration of MMPB detected in liver (average estimated value): 14.4 ng/g dw

## Microcystin-LR [MC-LR]
[2]
  free MC-LR in serum: < 0.03 ng/mL
[3]
  free MC-LR in liver, kidney, large and small intestine tissues: none of the tissues contained any trace
[4]
  bound MC-LR (MMPB) in liver tissue: negative
[5]
  free MC-LR in serum: negative
[6]
  free MC-LR in all other tissue samples (liver, kidney, small and large intestine, spleen, brain): free of MC-LR residues
[1]; in vivo
  MC-LR present in liver: 23.1 µg and 21.9 µg and 34.1 µg
  Uptake of MC-LR by liver as percentage of the dose administered: 1.1% and 0.8% and 1.5%
  average amount of bound MC-LR accumulated in liver: 26.4 ± 5.5 µg
  average uptake of MC-LR by liver as percentage of total dose administered: 1.1%
  estimated bound MC-LR in liver (average): 23.2 ng/g ww
[7]
  peaks in parent ion scan of Adda fragment m/z 135 in serum (free MC-LR or MC-LR metabolites): negative
[8]; po
  uptake of MC-LR into blood as percentage of dose administered: approximately 4.4%
  uptake of MC-LR into the liver: 1.7%
[8]
  half-life in the blood: 3.3 h
  time after which the liver indicated the presence of MC-LR: 1 h
  time of maximum levels in the liver after exposure: 3 h
[9]
  time at which levels of radiolabelled MC-LR peaked in the liver: 30 min
